Data reported in patent US11225471B2, “Antidiabetic bicyclic compounds” (Merck Sharp & Dohme Corp., priority 2017, dated 2022).

Target: T1, human GPR40 (Homo sapiens, UniProt O14842)
T1 construct: expressed in transfected cells
Assay: Inositol Phosphate Turnover (IP1) Assay
Assay type: cell-based
Conditions: HEK cells stably expressing human GPR40; 60 min incubation
Experimental: Human GPR40 stable cell-lines were generated in HEK cells. The expression plasmids were transfected using lipofectamine (Life Technologies) following manufacturer's instructions. Stable cell-lines were generated following drug selection and single cell cloning. The assay was performed in 384-well format. HEK cells stably expressing human GPR40 were plated at 7500 cells per well in growth medium (DMEM/10% fetal calf serum). Cell plates were then incubated 16 hours at 37 degrees in a 5% CO2 incubator. Measurement of Inositol Phosphate Turnover (IP1) was performed using the CisBio IP-One kit (Part number 62IPAPEB). After the 16 hour incubation, the growth media was removed by centrifugation using the BlueWasher (AusWasher GUI Ver. v1.0.1.8) Protocol #21-“Light Dry” and 10 ul of stimulation buffer (prepared as described in the kit) was added to each well. In a separate plate, compounds were diluted in DMSO (200-fold over the final concentration in the assay well) and 50 nl was acoustically transferred to the appropriate well in the assay cell plate. The plates were then incubated for 60 minutes at 37 degrees in a 5% CO2 incubator. 10 ul of detection buffer (also prepared as described in the IP-One kit) was added to each well and the plates were incubated at room temperature for 60 minutes in the dark. The plates were then read in a Perkin Elmer EnVision or equivalent reader able to measure FRET. Fluorescent ratio of emission at 665 and 620 nm was then converted to IP1 concentration by back calculating from an IP1 standard curve prepared at the time of the assay. Data were normalized to % activity using a reference compound and EC50s determined using a standard 4-parameter fit.

T1 sequence (O14842 whole entry): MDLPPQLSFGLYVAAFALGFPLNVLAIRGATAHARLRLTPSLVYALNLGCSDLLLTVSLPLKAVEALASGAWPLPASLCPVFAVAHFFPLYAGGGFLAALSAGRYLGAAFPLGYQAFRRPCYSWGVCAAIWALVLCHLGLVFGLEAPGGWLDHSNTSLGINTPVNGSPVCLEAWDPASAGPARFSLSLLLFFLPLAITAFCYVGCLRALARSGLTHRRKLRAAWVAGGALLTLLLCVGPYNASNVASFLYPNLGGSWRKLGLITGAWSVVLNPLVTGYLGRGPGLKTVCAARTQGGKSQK

Compound	EC50 [nM]
COc1cc(-c2cnc([C@@H]3CCc4ccc([C@H](C5CC5)[C@H](C)C(=O)O)cc4O3)c(C)n2)c(Cl)cn1 (single isomer, unassigned) [Example 1]	0.6
COc1cc(-c2cnc([C@H]3CCc4ccc([C@H](C5CC5)[C@H](C)C(=O)O)cc4O3)c(C)n2)c(Cl)cn1 (single isomer, unassigned) [Example 2]	1.3
CCOc1cc(-c2ncc(C3CCc4ccc([C@H](C5CC5)[C@H](C)C(=O)O)cc4O3)nc2C)c(F)cn1 (single isomer, unassigned) [Example 3]	7.8
CCOc1cc(-c2ncc(C3CCc4ccc([C@H](C5CC5)[C@H](C)C(=O)O)cc4O3)nc2C)c(F)cn1 (single isomer, unassigned) [Example 4]	6.9
COc1cc(-c2ncc(C3CCc4ccc([C@H](C5CC5)[C@H](C)C(=O)O)cc4O3)nc2C)c(Cl)cn1 (single isomer, unassigned) [Example 5]	11.2
COc1cc(-c2ncc(C3CCc4ccc([C@H](C5CC5)[C@H](C)C(=O)O)cc4O3)nc2C)c(Cl)cn1 (single isomer, unassigned) [Example 6]	3.3
Cc1nc(-c2cc(OCC(F)F)ncc2F)cnc1C1CCc2ccc([C@H](C3CC3)[C@H](C)C(=O)O)cc2O1 (single isomer, unassigned) [Example 7]	0.9
Cc1nc(-c2cc(OCC(F)F)ncc2F)cnc1C1CCc2ccc([C@H](C3CC3)[C@H](C)C(=O)O)cc2O1 (single isomer, unassigned) [Example 8]	1
CCOc1cc(-c2cnc(C3CCc4ccc([C@H](C5CC5)[C@H](C)C(=O)O)cc4O3)c(C)n2)c(F)cn1 (single isomer, unassigned) [Example 9]	0.7
COc1cc(-c2ncc(C3CCc4ccc([C@H](C5CC5)[C@H](C)C(=O)O)cc4O3)nc2C)c(Cl)cn1 (single isomer, unassigned) [Example 13]	4.1
COc1cc(-c2ncc(C3CCc4ccc([C@H](C5CC5)[C@H](C)C(=O)O)cc4O3)nc2C)c(Cl)cn1 (single isomer, unassigned) [Example 14]	13.8
COc1cc(-c2ncc(C3CCc4ccc([C@H](C5CC5)[C@H](C)C(=O)O)c(F)c4O3)nc2C)c(F)cn1 (single isomer, unassigned) [Example 15]	3
COc1cc(-c2ncc(C3CCc4ccc([C@H](C5CC5)[C@H](C)C(=O)O)c(F)c4O3)nc2C)c(F)cn1 (single isomer, unassigned) [Example 16]	6.6
COc1cc(-c2cnc(C3CCc4ccc([C@H](C5CC5)[C@H](C)C(=O)O)c(F)c4O3)c(C)n2)c(F)cn1 (single isomer, unassigned) [Example 17]	0.3
COc1cc(-c2cnc(C3CCc4ccc([C@H](C5CC5)[C@H](C)C(=O)O)c(F)c4O3)c(C)n2)c(F)cn1 (single isomer, unassigned) [Example 18]	4.2
CCOc1cc(-c2cnc(C3CCc4ccc([C@H](C5CC5)[C@H](C)C(=O)O)c(F)c4O3)c(C)n2)c(F)cn1 (single isomer, unassigned) [Example 19]	1.1
CCOc1cc(-c2cnc(C3CCc4ccc([C@H](C5CC5)[C@H](C)C(=O)O)c(F)c4O3)c(C)n2)c(F)cn1 (single isomer, unassigned) [Example 20]	0.4
COc1cc(-c2cnc(C3CCc4ccc([C@H](C5CC5)[C@H](C)C(=O)O)c(F)c4O3)c(C)n2)c(Cl)cn1 (single isomer, unassigned) [Example 21]	0.3
COc1cc(-c2cnc(C3CCc4ccc([C@H](C5CC5)[C@H](C)C(=O)O)c(F)c4O3)c(C)n2)c(Cl)cn1 (single isomer, unassigned) [Example 22]	1.6
COc1cc(-c2cnc(C3CCc4ccc([C@H](C5CC5)[C@H](C)C(=O)O)cc4O3)c(C)n2)c(C)cn1 (single isomer, unassigned) [Example 25]	8.1
COc1cc(-c2cnc(C3CCc4ccc([C@H](C5CC5)[C@H](C)C(=O)O)cc4O3)c(C)n2)c(C2CC2)cn1 (single isomer, unassigned) [Example 26]	5.4
CCOc1cc(-c2ncc([C@H]3CCc4ccc([C@H](C5CC5)[C@H](C)C(=O)O)c(F)c4O3)nc2C)c(F)cn1 [Example 11, (2S,3R)-3-cyclopropyl-3-((R)-2-(5-(2-ethoxy-5-fluoropyridin-4-yl)-6-methylpyrazin-2-yl)-8-fluorochroman-7-yl)-2-methylpropanoic acid]	3.5
CCOc1cc(-c2ncc([C@@H]3CCc4ccc([C@H](C5CC5)[C@H](C)C(=O)O)c(F)c4O3)nc2C)c(F)cn1 [Example 12, (2S,3R)-3-cyclopropyl-3-((S)-2-(5-(2-ethoxy-5-fluoropyridin-4-yl)-6-methylpyrazin-2-yl)-8-fluorochroman-7-yl)-2-methylpropanoic Acid]	4.3
CCc1nc([C@H]2CCc3ccc([C@H](C4CC4)[C@H](C)C(=O)O)cc3O2)cnc1-c1cc(OC)ncc1F [Example 23, (2S,3R)-3-cyclopropyl-3-((R)-2-(6-ethyl-5-(5-fluoro-2-methoxypyridin-4-yl)pyrazin-2-yl)chroman-7-yl)-2-methylpropanoic acid]	6.5
CCc1nc([C@@H]2CCc3ccc([C@H](C4CC4)[C@H](C)C(=O)O)cc3O2)cnc1-c1cc(OC)ncc1F [Example 24, (2S,3R)-3-cyclopropyl-3-((S)-2-(6-ethyl-5-(5-fluoro-2-methoxypyridin-4-yl)pyrazin-2-yl)chroman-7-yl)-2-methylpropanoic Acid]	2.3
COc1cc(-c2cnc([C@H]3C[C@H](OC)c4ccc([C@H](C5CC5)[C@H](C)C(=O)O)cc4O3)cn2)c(F)cn1 [Example 27, (2S,3R)-3-cyclopropyl-3-{(2R,4S)-2-[5-(5-fluoro-2-methoxypyridin-4-yl)pyrazin-2-yl]-4-methoxy-3,4-dihydro-2H-chromen-7-yl}-2-methylpropanoic Acid]	1.7
